Experiments:
human calcium receptor = biological target: T1, human calcium receptor (Homo sapiens, UniProt P41180); test: Activity on calcium receptors: fluo-3 fluorescence in HEK293 cells transfected with human calcium receptor gene; type: cell-based; conditions: HEK293 cells transfected with plasmid pHuPCaR4.0 (human calcium receptor gene), loaded with fluo-3; 1 mM CaCl2, 1 mM MgCl2
T1 construct: expressed in transfected cells; host or cells: HEK293
T1 sequence (P41180 20-1078): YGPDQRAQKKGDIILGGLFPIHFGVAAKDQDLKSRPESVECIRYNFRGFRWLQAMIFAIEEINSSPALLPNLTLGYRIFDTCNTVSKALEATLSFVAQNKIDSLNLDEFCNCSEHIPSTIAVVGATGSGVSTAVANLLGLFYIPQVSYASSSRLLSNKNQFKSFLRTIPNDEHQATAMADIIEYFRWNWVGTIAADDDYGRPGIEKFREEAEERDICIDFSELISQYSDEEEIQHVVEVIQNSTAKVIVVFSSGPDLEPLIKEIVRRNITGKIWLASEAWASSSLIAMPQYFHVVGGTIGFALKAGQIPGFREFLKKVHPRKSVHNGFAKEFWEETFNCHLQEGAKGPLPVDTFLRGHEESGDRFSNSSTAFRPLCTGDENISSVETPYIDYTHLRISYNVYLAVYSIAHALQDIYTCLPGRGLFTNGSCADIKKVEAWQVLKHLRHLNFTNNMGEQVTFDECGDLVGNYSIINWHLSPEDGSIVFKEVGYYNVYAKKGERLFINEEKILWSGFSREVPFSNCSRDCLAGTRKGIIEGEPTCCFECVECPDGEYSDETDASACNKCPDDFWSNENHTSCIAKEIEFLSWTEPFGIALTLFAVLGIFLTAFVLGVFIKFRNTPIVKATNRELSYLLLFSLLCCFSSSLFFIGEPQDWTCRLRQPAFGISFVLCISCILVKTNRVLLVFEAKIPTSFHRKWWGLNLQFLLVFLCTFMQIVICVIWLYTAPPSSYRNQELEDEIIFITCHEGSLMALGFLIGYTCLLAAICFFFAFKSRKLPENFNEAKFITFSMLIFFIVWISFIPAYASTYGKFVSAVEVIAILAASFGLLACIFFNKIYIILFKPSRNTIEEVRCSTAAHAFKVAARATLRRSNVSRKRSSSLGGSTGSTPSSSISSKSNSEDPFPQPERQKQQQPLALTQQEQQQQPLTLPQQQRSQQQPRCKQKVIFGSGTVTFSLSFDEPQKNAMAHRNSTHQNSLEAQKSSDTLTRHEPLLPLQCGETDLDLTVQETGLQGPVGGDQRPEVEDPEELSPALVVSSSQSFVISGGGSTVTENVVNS
Procedure: The activities of the compounds of the present invention on calcium receptors were measured. The measurement was performed in accordance with the method described in Example 4 of Nemeth et al., PCT/US95/13704 (International Publication No. WO96/12697). In brief, HEK293 cells were transfected with a plasmid pHuPCaR4.0 containing a human calcium receptor gene and loaded with fluo-3. The loading was carried out by incubating the cells at 37° C. for 1 hour in Dulbecco's modified Eagle's medium which contained about 5 μM of fluo-3/AM and had been buffered with 20 mM HEPES. Next, the cells were rinsed with Hank's balanced salt solution which contained 1 mM CaCl2 and 1 mM MgCl2 and had been buffered with 20 mM HEPES. Then each test compound was added to the cells and the fluorescence was measured with the use of an excitation wavelength of 485 nm and an emission wavelength of 540 nm.

normal male SD rats = test: Plasma Ca^2+ level of rats after single oral administration; type: in vivo; conditions: rat, mean of six animals, vehicle 10% cyclodextrin (** 1% sodium-CMC); for Plasma Ca^2+ (mmol/l) 1 hr: 1 hr after single oral dose 30 μmol/kg; for Plasma Ca^2+ (mmol/l) 2 hr: 2 hr after single oral dose 30 μmol/kg; for Plasma Ca^2+ (mmol/l) 4 hr: 4 hr after single oral dose 30 μmol/kg; for Plasma Ca^2+ (mmol/l) 8 hr: 8 hr after single oral dose 30 μmol/kg; for Plasma Ca^2+ (mmol/l) 0 hr: 0 hr = before oral administration of 30 μmol/kg
Procedure: The compound of the present invention was administered to rats so as to examine the effects of the compound on the plasma calcium ion level and serum PTH level. The test was performed by orally administering single dose of the compound of the invention or a control compound to normal male SD rats with six animals in each group.
To the group 1 was administered as a control a 10% cyclodextrin aqueous solution in a dose of 2.5 ml/kg. To the group 2 was administered as a reference (R)-N-(3-(2-chlorophenyl)propyl)-1-(3-methoxyphenyl)ethylamine (KRN568) dissolved in a 10% cyclodextrin aqueous solution in a dose of 30 μmol/kg. To the group 3 was administered the compound of the present invention dissolved in a 10% cyclodextrin aqueous solution in a dose of 30 μmol/kg, provided that 1% sodium-CMC aqueous solution was used in place of 10% cyclodextrin aqueous solution for the compounds marked with ** in Table 2.
Blood of each rat was collected from the tail tip before the administration and 30 minutes and 1, 2, 4, 8 and 24 hours thereafter (or at the time indicated in Table 2), and the plasma Ca^2+ level and serum PTH level were measured. The data of the serum PTH level were statistically processed by the multiple comparison analysis in accordance with Steel's calibration by using the group 1 as the control.

EC50 (human calcium receptor)	SMILES	Plasma Ca^2+ (mmol/l) 1 hr (normal male SD rats)	Plasma Ca^2+ (mmol/l) 2 hr (normal male SD rats)	Plasma Ca^2+ (mmol/l) 4 hr (normal male SD rats)	Plasma Ca^2+ (mmol/l) 8 hr (normal male SD rats)	Plasma Ca^2+ (mmol/l) 0 hr (normal male SD rats)	Plasma Ca^2+ (mmol/l) 27 hr (footnote *b, 24 hr) (normal male SD rats; 27 hr after single oral dose 30 μmol/kg)	Plasma Ca^2+ (mmol/l) 24 hr (normal male SD rats; 24 hr after single oral dose 30 μmol/kg)
340 nM	C[C@@H](NCCCCCSc1cc(Cl)c(Cl)cc1Cl)c1cccc2ccccc12 [Compound K-2282, N-[(1R)-1-(1-naphthyl)ethyl]-N-{5-[(2,4,5-trichlorophenyl)thio]pentyl}amine]	1.425 mmol/L	1.298 mmol/L	1.168 mmol/L	1.078 mmol/L		1.230*^b mmol/l	
98 nM	Cc1ccc(SCCCCN[C@H](C)c2cccc3ccccc23)cc1 [Compound K-2304, N-{4-[(4-methylphenyl)thio]butyl}-N-[(1R)-1-(1-naphthyl)ethyl]amine]	1.262 mmol/L	1.157 mmol/L	1.053 mmol/L	1.065 mmol/L			
390 nM	C[C@@H](NCCCCCSc1ccc(Cl)cc1)c1cccc2ccccc12 [Compound K-2027, N-{5-[(4-chlorophenyl)thio]pentyl}-N-[(1R)-1-(1-naphthyl)ethyl]amine]	1.197 mmol/L	1.102 mmol/L	0.995 mmol/L	1.048 mmol/L			1.363 mmol/L
140 nM	CCOc1ccc2sc(SCCCCN[C@H](C)c3cccc4ccccc34)nc2c1 [Compound K-2271]	1.278 mmol/L	1.227 mmol/L	1.128 mmol/L	1.197 mmol/L	1.428 mmol/L		
110 nM	C[C@@H](NCCCCSc1ccc(F)cc1)c1cccc2ccccc12 [Compound K-2263, N-{4-[(4-fluorophenyl)thio]butyl}-N-[(1R)-1-(1-naphthyl)ethyl]amine]	1.273 mmol/L	1.237 mmol/L	1.212 mmol/L	1.308 mmol/L			

The next lines start with the compound.

SMILES	EC50 (human calcium receptor)	Plasma Ca^2+ (mmol/l) 1 hr (normal male SD rats)	Plasma Ca^2+ (mmol/l) 2 hr (normal male SD rats)	Plasma Ca^2+ (mmol/l) 4 hr (normal male SD rats)	Plasma Ca^2+ (mmol/l) 8 hr (normal male SD rats)	Plasma Ca^2+ (mmol/l) 0 hr (normal male SD rats)	Plasma Ca^2+ (mmol/l) 27 hr (footnote *b, 24 hr) (normal male SD rats; 27 hr after single oral dose 30 μmol/kg)	Plasma Ca^2+ (mmol/l) 24 hr (normal male SD rats; 24 hr after single oral dose 30 μmol/kg)
C[C@@H](NCCC(=O)N(Cc1ccccc1)Cc1ccc(Cl)c(Cl)c1)c1cccc2ccccc12 [Compound K-2250, N1-benzyl-N1-(3,4-dichloro-benzyl)-3-{[(1R)-1-(1-naphthyl)ethyl]amino}propanamide]	76 nM	1.327 mmol/L	1.225 mmol/L	1.122 mmol/L	1.203 mmol/L			
Cc1ccc(SC(C)CCCN[C@H](C)c2cccc3ccccc23)c(C)c1 (stereo partly shown) [Compound K-2303]	350 nM	1.255 mmol/L	1.165 mmol/L	1.020 mmol/L	1.032 mmol/L	1.415 mmol/L		
C[C@@H](NCCCCCSc1c(F)c(F)c(C(F)(F)F)c(F)c1F)c1cccc2ccccc12 [Compound K-2284, N-[(1R)-1-(1-naphthyl)ethyl]-N-(5-{[2,3,5,6-tetrafluoro-4-(trifluoromethyl)phenyl]thio}pentyl) amine]	360 nM	1.377 mmol/L	1.267 mmol/L	1.152 mmol/L	1.102 mmol/L			
Cc1ccc(CN(Cc2ccc(Cl)c(Cl)c2)C(=O)CCN[C@H](C)c2cccc3ccccc23)cc1 [Compound K-2294, N1-(3,4-dichlorobenzyl)-N1-(4-methylbenzyl)-3-{[(1R)-1-(1-naphthyl)ethyl]amino}propanamide]	62 nM	1.357 mmol/L	1.255 mmol/L	1.117 mmol/L	1.022 mmol/L			
C[C@@H](NCCC(=O)N(Cc1ccc(Cl)cc1)Cc1ccc2ccccc2c1)c1cccc2ccccc12 [Compound K-2291, N1-(4-chlorobenzyl)-N1-(2-naphthylmethyl)-3-{[(1R)-1-(1-naphthyl)ethyl]amino}propanamide]	81 nM	1.298 mmol/L	1.247 mmol/L	1.130 mmol/L	1.132 mmol/L			
COc1ccc(CN(Cc2ccc(Cl)cc2)C(=O)CCN[C@H](C)c2cccc3ccccc23)cc1 [Compound K-2289, N1-(4-chlorobenzyl)-N1-(4-methoxybenzyl)-3-{[(1R)-1-(1-naphthyl)ethyl]amino}propanamide]	74 nM	1.270 mmol/L	1.173 mmol/L	1.003 mmol/L	1.093 mmol/L			
C[C@@H](NCCCCSc1c(F)c(F)c(C(F)(F)F)c(F)c1F)c1cccc2ccccc12 [Compound K-2297, N-[(1R)-1-(1-naphthyl)ethyl]-N-(4-{[2,3,5,6-tetrafluoro-4-(trifluoromethyl)phenyl]thio}butyl)amine]	230 nM	1.393 mmol/L	1.305 mmol/L	1.172 mmol/L	1.082 mmol/L			
CCCCCCOc1cccc(C(C)NCCSc2cc(Cl)ccc2Cl)c1 (racemic) [Compound K-2255, (±)-N-(1-(3-n-hexyloxyphenyl)ethyl)-2-(2′,5′-dichlorophenylthio)ethylamine]	9600 nM	1.328 mmol/L	1.212 mmol/L	1.177 mmol/L	1.232 mmol/L			
COc1ccc(CN(Cc2ccc(OC)cc2)C(=O)CCN[C@H](C)c2cccc3ccccc23)cc1 [Compound K-2270, N1,N1-di(4-methoxybenzyl)-3-{[(1R)-1-(1-naphthyl)ethyl]amino}propanamide]	140 nM	1.355 mmol/L	1.238 mmol/L	1.088 mmol/L	1.175 mmol/L			
C[C@@H](NCCC(=O)N(Cc1ccc(Cl)cc1)Cc1ccc(OC(F)(F)F)cc1)c1cccc2ccccc12 [Compound K-2283, N1-(4-chlorobenzyl)-N1-[4-(trifluoromethoxy)benzyl)-3-{[(1R)-1-(1-naphthyl)ethyl]-amino}propanamide]	93 nM	1.395 mmol/L	1.305 mmol/L	1.210 mmol/L	1.253 mmol/L			

Reference: patent US7816408B2, “Calcium receptor active compounds” (NPS Pharmaceuticals, Inc., priority 2002, dated 2010)
